Assay results as given in ChEMBL document CHEMBL4364275, “Jietacins, azoxy natural products, as novel NF-κB inhibitors: Discovery, synthesis, biological activity, and mode of action” (Eur J Med Chem, 2019).
≈ marks a conversion by molar mass, not a printed value. Calls of active or inactive are those of the source. The calls are words filed in the database; no cut-off is given here.

Tests used:
[1] = tested on: ATN-1; assay: Antiproliferative activity against human ATN1 cells assessed as reduction in cell viability measured after 24 hrs by MTT assay; format: functional; conditions: ATN-1, 24 h, read-out: ED50 (the source's name)
[2] = tested on: K562; assay: Antiproliferative activity against human K562 cells assessed as reduction in cell viability at 10 ug/ml measured after 24 hrs by MTT assay relative to control; format: functional
[3] = species on record: Homo sapiens; assay: Inhibition of NF-kappaB localization in nucleus of human L540 cells at 10 ug/ml measured after 5 to 24 hrs by DAPI staining immunofluorescence microscopy
[4] = species on record: Homo sapiens; assay: Inhibition of NF-kappaB localization in nucleus of human L540 cells at 0.2 ug/ml measured after 5 hrs by DAPI staining immunofluorescence microscopy
[5] = species on record: Homo sapiens; assay: Inhibition of TNF alpha stimulated NF-kappaB in human FL cells transfected with kappaB luciferase at 5 to 10 ug/ml incubated for 4 hrs followed by TNF alpha stimulation measured after 3 hrs by dual luciferase reporter gene assay; format: cell-based
[6] = species on record: Homo sapiens; assay: Inhibition of TNF alpha stimulated NF-kappaB in human FL cells transfected with kappaB luciferase incubated for 2 hrs followed by TNF alpha stimulation measured after 3 hrs by dual luciferase reporter gene assay; format: cell-based
[7] = species on record: Homo sapiens; assay: Antiproliferative activity against human KMM1 cells assessed as reduction in cell viability at 25 to 100 ng/ml measured after 24 to 48 hrs by MTT assay; format: functional, cell-based
[8] = tested on: U-266; assay: Antiproliferative activity against human U266 cells assessed as reduction in cell viability at 25 to 100 ng/ml measured after 24 to 48 hrs by MTT assay; format: functional, cell-based
[9] = tested on: KM-H2; assay: Antiproliferative activity against human KM-H2 cells assessed as reduction in cell viability at 25 to 100 ng/ml measured after 24 to 48 hrs by MTT assay; format: functional, cell-based
[10] = tested on: L-540; assay: Antiproliferative activity against human L540 cells assessed as reduction in cell viability at 25 to 100 ng/ml measured after 24 to 48 hrs by MTT assay; format: functional, cell-based
[11] = tested on: HeLa; assay: Antiproliferative activity against human HeLa cells assessed as reduction in cell viability at 25 to 100 ng/ml measured after 24 to 48 hrs by MTT assay; format: functional, cell-based
[12] = tested on: K562; assay: Antiproliferative activity against human K562 cells assessed as reduction in cell viability at 25 to 100 ng/ml measured after 24 to 48 hrs by MTT assay; format: functional, cell-based
[13] = species on record: Homo sapiens; assay: Antiproliferative activity against human KK1 cells assessed as reduction in cell viability at 25 to 100 ng/ml measured after 24 to 48 hrs by MTT assay; format: functional, cell-based
[14] = species on record: Homo sapiens; assay: Antiproliferative activity against human KOB cells assessed as reduction in cell viability at 25 to 100 ng/ml measured after 24 to 48 hrs by MTT assay; format: functional, cell-based
[15] = tested on: HeLa; assay: Inhibition of TNF alpha stimulated NF-kappaB localization in nucleus of human HeLa cells transfected with GFP-fused RelA C38S and IKBalpha expressing plasmid incubated for 2 hrs followed by TNF alpha stimulation by immunofluorescence microscopy; format: cell-based
[16] = tested on: HeLa; assay: Inhibition of TNF alpha stimulated NF-kappaB localization in nucleus of human HeLa cells transfected with GFP-fused RelA and IKBalpha expressing plasmid incubated for 2 hrs followed by TNF alpha stimulation by immunofluorescence microscopy; format: cell-based
[17] = tested on: HeLa; assay: Inhibition of TNF alpha stimulated NF-kappaB in human HeLa cells transfected with GFP-fused RelA mutant and IKBalpha expressing plasmid incubated for 2 hrs followed by TNF alpha stimulation by immunofluorescence microscopy; format: cell-based
[18] = tested on: HeLa; assay: Inhibition of TNF alpha stimulated NF-kappaB in human HeLa cells transfected with GFP-fused p50 mutant and IKBalpha expressing plasmid incubated for 2 hrs followed by TNF alpha stimulation by immunofluorescence microscopy; format: cell-based
[19] = target: Transcription factor p65 (Homo sapiens) (UniProt Q04206); assay: Inhibition of NF-kappaB RelA association with importin alpha in human KM-H2 cells at 0.2 ug/ml after 6 hrs by immunoprecipitation method; format: cell-based
Transcription factor p65 (Homo sapiens), sequence (Q04206 whole entry): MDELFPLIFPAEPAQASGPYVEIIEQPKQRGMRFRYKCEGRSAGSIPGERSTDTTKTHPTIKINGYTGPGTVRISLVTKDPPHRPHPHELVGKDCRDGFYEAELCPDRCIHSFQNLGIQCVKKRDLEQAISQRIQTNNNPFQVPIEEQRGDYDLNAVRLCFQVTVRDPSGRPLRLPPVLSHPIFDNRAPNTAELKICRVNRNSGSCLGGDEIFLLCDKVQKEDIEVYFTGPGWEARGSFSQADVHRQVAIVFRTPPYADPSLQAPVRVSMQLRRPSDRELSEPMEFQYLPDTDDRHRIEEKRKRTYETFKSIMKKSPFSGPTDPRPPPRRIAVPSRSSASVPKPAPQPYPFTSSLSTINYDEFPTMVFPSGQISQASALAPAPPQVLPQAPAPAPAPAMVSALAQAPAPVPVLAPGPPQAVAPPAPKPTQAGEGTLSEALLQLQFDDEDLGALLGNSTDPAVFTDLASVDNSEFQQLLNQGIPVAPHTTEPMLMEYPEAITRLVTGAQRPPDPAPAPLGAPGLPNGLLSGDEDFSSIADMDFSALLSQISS

[20] = Acute toxicity in rat; conditions: in vivo
[21] = target: T1, Importin subunit alpha-4 (Homo sapiens) (UniProt O00505); assay: Inhibition of importin alpha 3 in human KM-H2 cells at 0.2 ug/ml after 6 hrs by Western blot analysis (reference value: 1); format: cell-based
T1 sequence (whole entry): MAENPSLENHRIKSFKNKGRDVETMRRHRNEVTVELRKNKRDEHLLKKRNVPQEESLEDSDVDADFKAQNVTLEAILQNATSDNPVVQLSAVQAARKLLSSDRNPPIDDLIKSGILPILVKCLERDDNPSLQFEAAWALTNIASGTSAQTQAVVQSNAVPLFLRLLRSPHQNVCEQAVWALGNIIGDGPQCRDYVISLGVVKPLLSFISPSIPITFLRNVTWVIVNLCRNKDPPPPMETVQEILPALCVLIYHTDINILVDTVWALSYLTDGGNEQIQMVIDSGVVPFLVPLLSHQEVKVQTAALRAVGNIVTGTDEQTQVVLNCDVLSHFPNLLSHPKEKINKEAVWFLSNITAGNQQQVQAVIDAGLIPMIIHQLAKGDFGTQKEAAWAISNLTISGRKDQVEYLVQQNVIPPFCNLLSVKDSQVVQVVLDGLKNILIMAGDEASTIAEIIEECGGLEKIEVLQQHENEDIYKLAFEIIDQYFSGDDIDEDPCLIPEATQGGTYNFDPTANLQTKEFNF

[22] = species on record: Homo sapiens; assay: Inhibition of NF-kappaB localization in nucleus of human L540 cells at 0.7 ug/ml measured after 5 to 24 hrs by DAPI staining immunofluorescence microscopy
[23] = species on record: Homo sapiens; assay: Inhibition of NF-kappaB localization in nucleus of human L540 cells at 3 ug/ml measured after 5 hrs by DAPI staining immunofluorescence microscopy
[24] = species on record: Homo sapiens; assay: Inhibition of NF-kappaB localization in nucleus of human L540 cells at 1.5 ug/ml measured after 5 hrs by DAPI staining immunofluorescence microscopy

Structure (SMILES) | EC50 [1] | Activity [2] | also measured
C=C/[N+]([O-])=N/CCCCCCCCn1cc(-c2cc3ccccc3c3ccccc23)nn1 | 1.03 µg/mL (≈ 2.41 µM) | <20% | –
C=CC(C)(C)[C@@]12C=C(OC)C(=O)N3/C(=C/c4c[nH]cn4)C(=O)N[C@]31N(OC)c1ccccc12 | – | – | inhibition [3]: inactive
C#CC(=O)CCCCCCC/N=[N+](\[O-])C=C | 0.03 µg/mL (≈ 0.135 µM) | <20% | inhibition [4]: Active; inhibition [5]: Active; inhibition [6]: Dose-dependent effect; Activity [7]: Active; Activity [8]: Active; Activity [9]: Active; Activity [10]: Active; Activity [11]: Active; Activity [12]: Active; Activity [13]: Active; Activity [14]: Active; inhibition [15]: inactive; inhibition [16]: Active; inhibition [17]: inactive; inhibition [18]: Active; inhibition [19]: Active; LD50 [20]: > 300 mg/kg; fold change (FC) [21]: 0.53
C=C/[N+]([O-])=N/CCCCCCCC(=O)CCCCC[C@@H](C)CC | 1.65 µg/mL (≈ 5.08 µM) | <20% | –
C=C/[N+]([O-])=N/CCCCCCCCn1cc([Si](C)(C)C)nn1 | 0.68 µg/mL (≈ 2.1 µM) | <20% | –
C=C/[N+]([O-])=N/CCCCCCCCn1cc(CCCCC#N)nn1 | 0.97 µg/mL (≈ 2.92 µM) | <20% | –
CC1(C)CCC2=C(O1)c1ccccc1C(=O)C2=O | – | – | inhibition [22]: inactive
C=C/[N+]([O-])=N/CCCCCCCCn1cc(CCCCO)nn1 | 0.71 µg/mL (≈ 2.2 µM) | <20% | inhibition [23]: Active
C=C/[N+]([O-])=N/CCCCCCCCn1cc(CC(C)C)nn1 | 0.83 µg/mL (≈ 2.7 µM) | <20% | –
C=C/[N+]([O-])=N/CCCCCCCC(=O)CCCCCC | 1.29 µg/mL (≈ 4.57 µM) | <20% | –
C=C/[N+]([O-])=N/CCCCCCCCn1cc(CCC(C)C)nn1 | 0.72 µg/mL (≈ 2.24 µM) | <20% | –
C=C/[N+]([O-])=N/CCCCCCCCn1cc(C2CC2)nn1 | 0.84 µg/mL (≈ 2.88 µM) | <20% | inhibition [23]: Active
C=C/[N+]([O-])=N/CCCCCCCC(=O)CCCCCC(C)C | 1.82 µg/mL (≈ 5.86 µM) | <20% | inhibition [3]: Active; inhibition [5]: Active
C=C/[N+]([O-])=N/CCCCCCCCO[Si](C)(C)C(C)(C)C | 1.34 µg/mL (≈ 4.26 µM) | <20% | –
C=C/[N+]([O-])=N/CCCCCCCC(=O)CCc1ccccc1 | 1.09 µg/mL (≈ 3.6 µM) | <20% | –
C=C/[N+]([O-])=N/CCCCCCCCn1cc(CN(Cc2cn(CCCCCCCC/N=[N+](\[O-])C=C)nn2)Cc2cn(CCCCCCCC/N=[N+](\[O-])C=C)nn2)nn1 | 0.23 µg/mL (≈ 0.285 µM) | <20% | inhibition [24]: Active
C=C/[N+]([O-])=N/CCCCCCCCn1cc(CCBr)nn1 | 0.97 µg/mL (≈ 2.71 µM) | <20% | –
